Laboratory results taken from patent US10329317B2, “Quinoline derivative for use in the treatment and prevention of viral infections” (ABIVAX, priority 2015, dated 2019).
Where two headings read alike, the source gives them in different places.

Tests used:
[1] = Solubility compared with Compound 2 (statement only); type: physicochemical
HIV-1 strain YU2 = test: HIV-1 production (p24 ELISA) in infected monocyte derived macrophages; type: cell-based
Experimental: HIV-1 strain YU2 was used to infect monocyte derived-macrophages from three different donors (donors 349, 350 and 351; respectively FIGS. 2A, 2B, and 2C panel) in the presence of increasing concentrations of the (glucuronidated) Compound 1, at 1.5 μM, 10 μM and 30 μM. The viral capsid protein p24 antigen was quantitated using standard ELISA protocol (expressed in pg/mL in y-axis). R-10 corresponds to untreated cells. […] To generate monocyte derived macrophages (MDMs), monocytes were isolated using CD14 microbeads (catalog no. 130-050-201; Miltenyi) and cultured in X-VIVO10 medium (Lonza) supplemented with GM-CSF 1000 U/ml and M-CSF 100 ng/ml for 6 days. Monocytes were seeded at a cell count of 50′000 cells per well in a 96 well plate. After 6 days medium was replaced with X-VIVO10 w/o Cytokines. After 2 days Macrophages were treated with Compound (1) o/n and next day infected with Yu-2 virus for 6 hrs, washed with PBS and cultured in medium containing the compounds for 12 days. Supernatant for p24 Elisa was collected 2 times a week. Cells were treated with 1.5 μM up to 30 μM and p24 antigen levels were monitored in culture supernatant over a 12 day period (R-10 corresponds to untreated cells) (FIG. 2).

[2] = First-in-man PK: compound (1) plasma levels after single oral ascending dose of compound (2); type: in vivo, human; conditions: for AUC(0-t) / AUC(0-inf) / Cmax / half-life / Tmax: male, human, plasma; for AUC(0-t) / AUC(0-inf) / Cmax / half-life: po; for Tmax: read-out: tmax, median
Experimental: The present document details the pharmacokinetic (PK) results obtained in a first-in-man study with compound (2) consisting in a single oral ascending dose in healthy male subjects. Four (4) dose levels were investigated (50, 100, 150, and 200 mg).
At each dose level, 6 subjects were included and received a single oral dose of compound (2) so that a total of 24 subjects participated to the study and completed it. No study deviation was identified at the time of the PK analysis and thus, all subjects were included in the PK analysis.
In this study, plasma levels of compound (1) were measured.
PK blood sampling was initially defined up to 48 h post-dose.
Blood samples for assessment of compound (1) plasma levels are scheduled at the following time points: • Day 1 pre-dose, 0.33, 0.66, 1.00, 1.50, 2.00, 2.50, 3.00, 4.00, 6.00, 8.00, 10.00, and 12.00 h post-dose; • Day 2 24.00 and 36.00 h post-dose; • Day 3 48.00 h post-dose; • Day 10 240 h post-dose; • Day 24 576 h post-dose; • Day 45 1080 h post-dose.
Plasma concentrations were processed throughout the PK software for PK data generation. The PK parameters were calculated by non-compartmental analysis (NCA), using Phoenix® WinNonlin® (Pharsight Corporation) running on a personal computer.
For the calculation of the PK parameters and characteristics the following rules were applied: • All the plasma concentrations validated provided to the pharmacokineticist were used for the PK analysis. • The actual blood sampling time points related to the preceding administration was used. • At time points in the lag-time between time zero and the first concentration equal or above limit of quantification (LOQ), concentrations below LOQ were set to zero (0). Concentrations below limit of quantification (BLOQ) between 2 concentrations equal or above LOQ were considered as missing data. Trailing concentrations BLOQ were used in calculations. • If pre-dose concentration was missing, it was arbitrary set to zero (0) assuming that expected results would have been BLOQ.
For each subject receiving the active treatment in each cohort, the following PK parameters of compound (1) were to be derived:
Cmax The observed maximum concentration measured in plasma was obtained directly from the concentration-time data.
tmax The time at which Cmax was apparent, identified by inspection of the plasma drug concentration vs. time data by Phoenix® WinNonlin®.
AUC0-t The area under the concentration-time curve from time zero (pre-dose) to the time of last quantifiable concentration was calculated using a linear trapezoidal method.
ke The terminal plasma elimination rate-constant was estimated from log-linear regression analysis of the terminal phase of the plasma concentration-time profile. The number of points included in the terminal phase was determined by visual inspection of the semi-log plots of the plasma concentration-time profiles (at least 3). AUC0-∞ The AUC from time 0 to infinity was calculated as AUC0-∞=AUC0-t+AUCt-∞, where AUC0-t is the area under the concentration-time curve from time zero (pre-dose) to the time of last quantifiable concentration calculated using a […] trapezoidal method and AUCt-∞=Ct/ke, where Ct is the measured concentration at time of the last quantifiable concentration t. The extrapolated part of AUC0-∞ must be <20% for the value to be considered as reliable. t1/2 The apparent terminal elimination half-life was calculated as ln 2/ke, where ke is the elimination rate constant during the terminal phase determined by the log-linear regression obtained on at least the 3 last quantifiable concentrations and using actual blood sampling times. The correlation coefficient for the goodness of the fit of the regression line through the data points must be 0.8500 or higher, for the value to be considered reliable.

Compound: O=C(O)[C@H]1O[C@@H](N(c2ccc(OC(F)(F)F)cc2)c2ccc3cccc(Cl)c3n2)[C@H](O)[C@@H](O)[C@@H]1O [Compound 1, N-β-glucuronide of 8-chloro-N-(4-(trifluoromethoxy)phenyl)quinolin-2-amine]
- solubility relative to Compound 2 [1]: more soluble
- inhibition at 30 µM (HIV-1 strain YU2; Human immunodeficiency virus 1, Primary macrophage, 288 h, primary macrophages, 30 μM, 12 day period, read-out: inhibition of virus replication (p24 antigen in culture supernatant)): ≤ 60%
- toxicity (HIV-1 strain YU2; macrophages, 1.5 μM up to 30 μM): low toxicity
- compound (1) plasma concentrations versus parent drug ([2]; after single oral compound (2), regardless of the dose): markedly higher
- AUC(0-t) ([2]; 50 mg, 50 mg compound (2) single oral, N=6, read-out: AUC0-t, GM (geometric mean)): 196 µg·h/mL
- AUC(0-t) ([2]; 50 mg, 50 mg compound (2) single oral, N=6, read-out: AUC0-t, Mean): 209 µg·h/mL
- AUC(0-inf) ([2]; 50 mg, 50 mg compound (2) single oral, N=6, read-out: AUC0-∞, GM (geometric mean)): 198 µg·h/mL
- AUC(0-inf) ([2]; 50 mg, 50 mg compound (2) single oral, N=6, read-out: AUC0-∞, Mean): 212 µg·h/mL
- Cmax ([2]; 50 mg, 50 mg compound (2) single oral, N=6, read-out: Cmax, GM (geometric mean)): 2540 ng/mL
- Cmax ([2]; 50 mg, 50 mg compound (2) single oral, N=6, read-out: Cmax, Mean): 2630 ng/mL
- half-life ([2]; 50 mg, 50 mg compound (2) single oral, N=6, read-out: t1/2, GM (geometric mean) (converted)): 3.99 days
- half-life ([2]; 50 mg, 50 mg compound (2) single oral, N=6, read-out: t1/2, Mean (converted)): 4.05 days
- AUC(0-t) ([2]; 100 mg, 100 mg compound (2) single oral, N=6, read-out: AUC0-t, GM (geometric mean)): 468 µg·h/mL
- AUC(0-t) ([2]; 100 mg, 100 mg compound (2) single oral, N=6, read-out: AUC0-t, Mean): 499 µg·h/mL
- AUC(0-inf) ([2]; 100 mg, 100 mg compound (2) single oral, N=6, read-out: AUC0-∞, GM (geometric mean)): 476 µg·h/mL
- AUC(0-inf) ([2]; 100 mg, 100 mg compound (2) single oral, N=6, read-out: AUC0-∞, Mean): 505 µg·h/mL
- Cmax ([2]; 100 mg, 100 mg compound (2) single oral, N=6, read-out: Cmax, GM (geometric mean)): 5400 ng/mL
- Cmax ([2]; 100 mg, 100 mg compound (2) single oral, N=6, read-out: Cmax, Mean): 5720 ng/mL
- half-life ([2]; 100 mg, 100 mg compound (2) single oral, N=6, read-out: t1/2, GM (geometric mean) (converted)): 4.62 days
- half-life ([2]; 100 mg, 100 mg compound (2) single oral, N=6, read-out: t1/2, Mean (converted)): 4.64 days
- AUC(0-t) ([2]; 150 mg, 150 mg compound (2) single oral, N=6, read-out: AUC0-t, GM (geometric mean)): 560 µg·h/mL
- AUC(0-t) ([2]; 150 mg, 150 mg compound (2) single oral, N=6, read-out: AUC0-t, Mean): 659 µg·h/mL
- AUC(0-inf) ([2]; 150 mg, 150 mg compound (2) single oral, N=6, read-out: AUC0-∞, GM (geometric mean)): 563 µg·h/mL
- AUC(0-inf) ([2]; 150 mg, 150 mg compound (2) single oral, N=6, read-out: AUC0-∞, Mean): 664 µg·h/mL
- Cmax ([2]; 150 mg, 150 mg compound (2) single oral, N=6, read-out: Cmax, GM (geometric mean)): 8270 ng/mL
- Cmax ([2]; 150 mg, 150 mg compound (2) single oral, N=6, read-out: Cmax, Mean): 9240 ng/mL
- half-life ([2]; 150 mg, 150 mg compound (2) single oral, N=6, read-out: t1/2, GM (geometric mean) (converted)): 3.99 days
- half-life ([2]; 150 mg, 150 mg compound (2) single oral, N=6, read-out: t1/2, Mean (converted)): 4.13 days
- AUC(0-t) ([2]; 200 mg, 200 mg compound (2) single oral, N=6, read-out: AUC0-t, GM (geometric mean)): 436 µg·h/mL
- AUC(0-t) ([2]; 200 mg, 200 mg compound (2) single oral, N=6, read-out: AUC0-t, Mean): 559 µg·h/mL
- AUC(0-inf) ([2]; 200 mg, 200 mg compound (2) single oral, N=6, read-out: AUC0-∞, GM (geometric mean)): 438 µg·h/mL
- AUC(0-inf) ([2]; 200 mg, 200 mg compound (2) single oral, N=6, read-out: AUC0-∞, Mean): 560 µg·h/mL
- Cmax ([2]; 200 mg, 200 mg compound (2) single oral, N=6, read-out: Cmax, GM (geometric mean)): 5900 ng/mL
- Cmax ([2]; 200 mg, 200 mg compound (2) single oral, N=6, read-out: Cmax, Mean): 7910 ng/mL
- half-life ([2]; 200 mg, 200 mg compound (2) single oral, N=6, read-out: t1/2, GM (geometric mean) (converted)): 3.66 days
- half-life ([2]; 200 mg, 200 mg compound (2) single oral, N=6, read-out: t1/2, Mean (converted)): 3.73 days
- half-life ([2]; healthy male subjects, single oral 50 to 200 mg compound (2), read-out: elimination half life (t1/2) (converted)): ~4.17 days
- Tmax ([2]; 50 mg compound (2) single oral, N=6): 4 h
- Tmax ([2]; 100 mg compound (2) single oral, N=6): 4 h
- Tmax ([2]; 150 mg compound (2) single oral, N=6): 4 h
- Tmax ([2]; 200 mg compound (2) single oral, N=6): 6 h
- time of first quantifiable compound (1) concentration ([2]; post-dose, 20 subjects out of 24): ~40 min
